Data as given in PMC8353992 (Journal of medicinal chemistry, 2021).

Molecular target: SARS-CoV-2 3CL^pro (Severe acute respiratory syndrome coronavirus 2, UniProt P0DTD1)
Format: biochemical

SMILES | primary biochemical potency
O=C(Cc1cccnc1)N(Cc1cccc(Cl)c1)c1ccc(-c2cn[nH]c2)cc1 [Compound 42, N-[(3-Chlorophenyl)methyl]-N-[4-(1H-pyrazol-4-yl)phenyl]-2-(3-pyridyl)acetamide] | micromolar levels
O=C(Cc1cncnc1)N(Cc1cccc(Cl)c1)c1ccc(-c2cn[nH]c2)cc1 [Compound 43, N-[(3-Chlorophenyl)methyl]-N-[4-(1H-pyrazol-4-yl)phenyl]-2-pyrimidin-5-yl-acetamide] | micromolar levels
